Source: PubChem BioAssay AID222 (DTP/NCI, 2004)
Values joined by “and” are separate entries in the source; they are usually repeats but may differ in a detail not shown here. Identical values can stand only once. Inconclusive results and toxic doses are left out. The calls were made as follows: active = survival T/C of 150% or more; inactive = T/C below 125% in these data.

Tested on: C57BL/6 mice, intracerebral ependymoblastoma, median survival T/C
Assay: NCI In Vivo Anticancer Drug Screen. Data for tumor model Ependymoblastoma (intracerebral) in C57BL/6 mice
Conditions: endpoint: median survival time, higher = longer survival
Experimental: The antitumor activity of compounds was measured in mice bearing transplantable tumors. Survival or tumor size were measured and the results are expressed as the measurement made in the treated group (T) divided by the measurement made in the vehicle treated control group (C). The tumor model used in this assay is Ependymoblastoma (intracerebral) in C57BL/6 mice

[1] = dose: 64.0 mg/kg/injection, schedule: Q01DX005 (ip), vehicle: Klucel (hydroxypropylcellulose) (HPC)
[2] = dose: 1.0 mg/kg/injection, schedule: Q01DX005 (ip), vehicle: saline with Tween-80
[3] = dose: 2.0 mg/kg/injection, schedule: Q01DX005 (ip), vehicle: saline with Tween-80

Measured: T/C

CC1CCC(NC(=O)N(CCCl)N=O)CC1 (stereo not drawn)
inactive: dose: 8.0 mg/kg/injection, schedule: Q01DX001 (ip), vehicle: saline with Tween-80 99 % of control | dose: 16.0 mg/kg/injection, schedule: Q01DX001 (ip), vehicle: saline with Tween-80 114 % of control | dose: 32.0 mg/kg/injection, schedule: Q01DX001 (ip), vehicle: saline with Tween-80 109 % of control | dose: 32.0 mg/kg/injection, schedule: Q01DX001 (oral), vehicle: Klucel (hydroxypropylcellulose) (HPC) 97 % of control | dose: 64.0 mg/kg/injection, schedule: Q01DX001 (ip), vehicle: saline with Tween-80 95 % of control and 109 % of control | dose: 64.0 mg/kg/injection, schedule: Q01DX001 (oral), vehicle: Klucel (hydroxypropylcellulose) (HPC) 102 % of control | dose: 128.0 mg/kg/injection, schedule: Q01DX001 (ip), vehicle: saline with Tween-80 98 % of control and 102 % of control | dose: 128.0 mg/kg/injection, schedule: Q01DX001 (oral), vehicle: Klucel (hydroxypropylcellulose) (HPC) 102 % of control | dose: 256.0 mg/kg/injection, schedule: Q01DX001 (ip), vehicle: saline with Tween-80 97 % of control | dose: 256.0 mg/kg/injection, schedule: Q01DX001 (oral), vehicle: Klucel (hydroxypropylcellulose) (HPC) 95 % of control | dose: 512.0 mg/kg/injection, schedule: Q01DX001 (ip), vehicle: saline with Tween-80 92 % of control | dose: 512.0 mg/kg/injection, schedule: Q01DX001 (oral), vehicle: Klucel (hydroxypropylcellulose) (HPC) 90 % of control
active: dose: 8.0 mg/kg/injection, schedule: Q01DX005 (oral), vehicle: Klucel (hydroxypropylcellulose) (HPC) 156 % of control | dose: 16.0 mg/kg/injection, schedule: Q01DX005 (oral), vehicle: Klucel (hydroxypropylcellulose) (HPC) 151 % of control

Cc1ncc([N+](=O)[O-])n1CCO
inactive: [1] 103 % of control | dose: 128.0 mg/kg/injection, schedule: Q01DX005 (ip), vehicle: Klucel (hydroxypropylcellulose) (HPC) 99 % of control | dose: 256.0 mg/kg/injection, schedule: Q01DX005 (ip), vehicle: Klucel (hydroxypropylcellulose) (HPC) 107 % of control | dose: 512.0 mg/kg/injection, schedule: Q01DX005 (ip), vehicle: Klucel (hydroxypropylcellulose) (HPC) 111 % of control | dose: 1024.0 mg/kg/injection, schedule: Q01DX005 (ip), vehicle: Klucel (hydroxypropylcellulose) (HPC) 94 % of control

N[C@H](C(=O)O)[C@@H]1CC(Cl)=NO1
inactive: [2] 93 % of control | [3] 94 % of control | dose: 4.0 mg/kg/injection, schedule: Q01DX005 (ip), vehicle: saline with Tween-80 113 % of control | dose: 8.0 mg/kg/injection, schedule: Q01DX005 (ip), vehicle: saline with Tween-80 108 % of control | dose: 8.0 mg/kg/injection, schedule: Q12HX002 (ip), vehicle: saline 118 % of control | dose: 16.0 mg/kg/injection, schedule: Q01DX001 (ip), vehicle: saline 100 % of control and 114 % of control | dose: 16.0 mg/kg/injection, schedule: Q12HX002 (ip), vehicle: saline 97 % of control | dose: 32.0 mg/kg/injection, schedule: Q01DX001 (ip), vehicle: saline 101 % of control | dose: 32.0 mg/kg/injection, schedule: Q12HX002 (ip), vehicle: saline 113 % of control | dose: 64.0 mg/kg/injection, schedule: Q01DX001 (ip), vehicle: saline 103 % of control and 113 % of control | dose: 64.0 mg/kg/injection, schedule: Q01DX001 (oral), vehicle: saline 93 % of control and 105 % of control | dose: 64.0 mg/kg/injection, schedule: Q12HX002 (ip), vehicle: saline 116 % of control | dose: 128.0 mg/kg/injection, schedule: Q01DX001 (ip), vehicle: saline 106 % of control and 108 % of control | dose: 128.0 mg/kg/injection, schedule: Q01DX001 (oral), vehicle: saline 98 % of control and 106 % of control | dose: 128.0 mg/kg/injection, schedule: Q12HX002 (ip), vehicle: saline 108 % of control | dose: 256.0 mg/kg/injection, schedule: Q01DX001 (ip), vehicle: saline 106 % of control and 108 % of control | dose: 256.0 mg/kg/injection, schedule: Q01DX001 (oral), vehicle: saline 102 % of control and 117 % of control | dose: 512.0 mg/kg/injection, schedule: Q01DX001 (oral), vehicle: saline 106 % of control and 121 % of control | dose: 1024.0 mg/kg/injection, schedule: Q01DX001 (oral), vehicle: saline 110 % of control and 115 % of control

CN(C)C(=O)N(CCCl)N=O
active: dose: 16.0 mg/kg/injection, schedule: Q01DX001 (ip), vehicle: other 154 % of control | dose: 20.0 mg/kg/injection, schedule: Q01DX001 (ip), vehicle: other 279 % of control

COc1ccc(C[C@H](N)C(=O)NC2C(CO)OC(n3cnc4c(N(C)C)ncnc43)C2O)cc1 (stereo partly drawn)
inactive: dose: 20.0 mg/kg/injection, schedule: Q01DX005 (ip), vehicle: saline 104 % of control | dose: 40.0 mg/kg/injection, schedule: Q01DX005 (ip), vehicle: saline 101 % of control

Cc1nc(N)nc(N)c1-c1ccc(Cl)c(Cl)c1
inactive: dose: 0.5 mg/kg/injection, schedule: Q01DX005 (ip), vehicle: saline with Tween-80 106 % of control and 117 % of control | [2] 89 % of control and 97 % of control | [3] 117 % of control | dose: 6.0 mg/kg/injection, schedule: Q04DX003 (ip), vehicle: saline 101 % of control | dose: 8.0 mg/kg/injection, schedule: Q04DX003 (ip), vehicle: saline 112 % of control

O=c1n(CC2CO2)c(=O)n(CC2CO2)c(=O)n1CC1CO1 (stereo not drawn)
inactive: dose: 20.0 mg/kg/injection, schedule: Q01DX009 (ip), vehicle: saline 114 % of control | dose: 25.0 mg/kg/injection, schedule: Q01DX009 (ip), vehicle: saline 114 % of control | dose: 40.0 mg/kg/injection, schedule: Q01DX009 (ip), vehicle: saline 124 % of control | dose: 50.0 mg/kg/injection, schedule: Q01DX009 (ip), vehicle: saline 111 % of control | dose: 100.0 mg/kg/injection, schedule: Q01DX009 (ip), vehicle: saline 95 % of control

Cc1c2ccncc2c(C)c2c1[nH]c1ccccc12
inactive: dose: 128.0 mg/kg/injection, schedule: Q01DX001 (ip), vehicle: Klucel (hydroxypropylcellulose) (HPC) 103 % of control

CO[C@H]1C[C@@H]2CC[C@@H](C)[C@@](O)(O2)C(=O)C(=O)N2CCCC[C@H]2C(=O)O[C@H]([C@H](C)C[C@@H]2CC[C@@H](O)[C@H](OC)C2)CC(=O)[C@H](C)C=C(C)[C@@H](O)[C@@H](OC)C(=O)[C@H](C)C[C@H](C)/C=C/C=C/C=C1C
active: dose: 100.0 mg/kg/injection, schedule: Q01DX009 (ip), vehicle: saline with Tween-80 157 % of control
inactive: dose: 3.12 mg/kg/injection, schedule: Q01DX009 (ip), vehicle: saline with Tween-80 111 % of control | dose: 6.25 mg/kg/injection, schedule: Q01DX009 (ip), vehicle: saline with Tween-80 120 % of control | dose: 200.0 mg/kg/injection, schedule: Q01DX009 (ip), vehicle: saline with Tween-80 92 % of control

O=C1C(=O)c2ccccc2C(O)=C1CC=C(Cl)Cl
inactive: dose: 4.0 mg/kg/injection, schedule: Q01DX005 (ip), vehicle: Klucel (hydroxypropylcellulose) (HPC) 102 % of control and 109 % of control | dose: 8.0 mg/kg/injection, schedule: Q01DX005 (ip), vehicle: Klucel (hydroxypropylcellulose) (HPC) 100 % of control and 122 % of control | dose: 16.0 mg/kg/injection, schedule: Q01DX005 (ip), vehicle: Klucel (hydroxypropylcellulose) (HPC) 104 % of control and 113 % of control | dose: 32.0 mg/kg/injection, schedule: Q01DX005 (ip), vehicle: Klucel (hydroxypropylcellulose) (HPC) 107 % of control and 108 % of control | [1] 101 % of control and 105 % of control

F
inactive: dose: 16.0 mg/kg/injection, schedule: Q01DX005 (ip), vehicle: saline 98 % of control | dose: 32.0 mg/kg/injection, schedule: Q01DX005 (ip), vehicle: saline 96 % of control

O=c1ccn(C2OC(CO)C(O)C2O)c(=O)[nH]1 (stereo not drawn)
inactive: dose: 64.0 mg/kg/injection, schedule: Q01DX005 (ip), vehicle: saline 93 % of control | dose: 128.0 mg/kg/injection, schedule: Q01DX005 (ip), vehicle: saline 89 % of control and 100 % of control | dose: 256.0 mg/kg/injection, schedule: Q01DX005 (ip), vehicle: saline 102 % of control and 109 % of control | dose: 512.0 mg/kg/injection, schedule: Q01DX005 (ip), vehicle: saline 96 % of control and 108 % of control
